# Data: patent US20140088192A1, “SUBCUTANEOUSLY INFUSIBLE LEVODOPA PRODRUG COMPOSITIONS AND METHODS OF INFUSION” (SynAgile Corporation, priority 2010, published 2014)
# Assays:
# [1] = Precipitation of LD from / clarity of LDEE solutions on holding
# Method: 150 mg of LDEE was dissolved in 3 mL of physiological saline (0.90% weight/volume of NaCl/water) at about 23° C., then at about 37° C. an additional amount of 22 mg of LDEE was added for a total LDEE concentration of about 57.3 mg/mL or about 0.25M.
# At the ambient temperature of about 23° C., 226 mg of LDEE was dissolved in 1 mL of 1 M HCl. To the formed aqueous LDEE.HCl solution an additional amount of about 184 mg LDEE was added, followed by about 0.1 mL deionized water.
# At the ambient temperature of about 23° C., about 113 mg of LDEE was dissolved in 1 mL of 1 M HCl. To the formed aqueous LDEE.HCl solution an additional amount of about 87 mg LDEE was added, followed by about 0.1 mL distilled water.
# At the ambient temperature of about 23° C., about 226 mg of LDEE was dissolved in 1 mL of 1 M acetic acid. To the formed aqueous LDEE acetate salt solution an additional amount of about 168 mg LDEE was added. […] The pH of the resulting suspension was about 7.01 at about 26.4° C.
# 1.7 g of LDEE (7.5 millimoles) was dissolved in 1.405 mL of aqueous 5M HCl, then enough trisodium citrate was added to increase the pH to 5.5.
# After flushing with nitrogen, the solution was kept for 7 days at 23±2° C. in a vial sealed with a grey elastomeric, substantially oxygen impermeable septum.
# [2] = pH change of LDEE.HCl solutions on holding; type: physicochemical; conditions: for pH of about 0.48M LDEE•HCl Solution / pH of about 0.95M LDEE•HCl Solution: 40° C.; for pH: about 2.7 M
# Method: An about 2.6 M LDEE.HCl pH 2.1 aqueous solution was prepared by dissolving 1.506 g LDEE in 1.3 mL of aqueous 5M HCl and adjusting the pH by adding 0.24 μL of 1 M HCl. […] After 24 hours, the pH was 2.0.
# To determine whether hydrolysis of subcutaneously infusible solutions of 0.95 M and 0.48 M LDEE.HCl concentrations excessively lowers their pH or drives their LD concentration beyond the saturation point where LD could precipitate, their starting pH of less <3 adjusted by adding an about 1.5 M trisodium citrate solution, were kept at 40° C. for 24 hrs.
# [3] = Achievable concentration and density of concentrated LDEE salt solutions
# Method: The pH was adjusted to 4.60 by adding 160 mg of sodium acetate.
# volunteer = assay: Intramuscular / subcutaneous infusion of LDEE.HCl in human volunteers, local tolerability; type: in vivo; conditions: s.c. abdomen, 0.24 mL of 2.3 M pH 4.5 over about 90 min in 8 boluses
smiles,measurement,setting,value
"CCOC(=O)[C@@H](N)Cc1ccc(O)c(O)c1.Cl [LDEE.HCl, LDEE Hydrochloride]",precipitation of LD,"[1]; about 0.7 M LDEE + LDEE.HCl, pH about 6.87, 37° C., 16 hours",extensive precipitation of LD
same,precipitation of LD,"[1]; about 1.3 M LDEE + LDEE.HCl, pH about 6.75, 37° C., 3 hours",no precipitation
same,precipitation of LD,"[1]; about 1.3 M LDEE + LDEE.HCl, pH about 6.75, 37° C., 16 hours",extensive precipitation of LD
same,pH of about 0.48M LDEE•HCl Solution,"[2]; 0 h, starting pH 4.19",4.19
same,pH of about 0.95M LDEE•HCl Solution,"[2]; 0 h, starting pH 4.2",4.2
same,pH of about 0.95M LDEE•HCl Solution,"[2]; 0 h, starting pH 4.4",4.4
same,pH of about 0.48M LDEE•HCl Solution,"[2]; 0 h, starting pH 4.45",4.45
same,pH of about 0.48M LDEE•HCl Solution,"[2]; 0 h, starting pH 4.59",4.59
same,pH of about 0.95M LDEE•HCl Solution,"[2]; 0 h, starting pH 4.6",4.6
same,pH of about 0.48M LDEE•HCl Solution,"[2]; 0 h, starting pH 4.78",4.78
same,pH of about 0.95M LDEE•HCl Solution,"[2]; 0 h, starting pH 4.82",4.82
same,pH of about 0.48M LDEE•HCl Solution,"[2]; 0 h, starting pH 5.01",5.01
same,pH of about 0.95M LDEE•HCl Solution,"[2]; 0 h, starting pH 5.01",5.01
same,pH of about 0.95M LDEE•HCl Solution,"[2]; 0 h, starting pH 5.3",5.3
same,pH of about 0.48M LDEE•HCl Solution,"[2]; 0 h, starting pH 5.31",5.31
same,pH of about 0.95M LDEE•HCl Solution,"[2]; 0 h, starting pH 5.6",5.6
same,pH of about 0.48M LDEE•HCl Solution,"[2]; 0 h, starting pH 5.61",5.61
same,pH of about 0.48M LDEE•HCl Solution,"[2]; 2 h, starting pH 4.19",4.43
same,pH of about 0.95M LDEE•HCl Solution,"[2]; 2 h, starting pH 4.2",4.19
same,pH of about 0.95M LDEE•HCl Solution,"[2]; 2 h, starting pH 4.4",4.38
same,pH of about 0.48M LDEE•HCl Solution,"[2]; 2 h, starting pH 4.45",4.58
same,pH of about 0.48M LDEE•HCl Solution,"[2]; 2 h, starting pH 4.59",4.68
same,pH of about 0.95M LDEE•HCl Solution,"[2]; 2 h, starting pH 4.6",4.61
same,pH of about 0.48M LDEE•HCl Solution,"[2]; 2 h, starting pH 4.78",4.85
same,pH of about 0.95M LDEE•HCl Solution,"[2]; 2 h, starting pH 4.82",4.74
same,pH of about 0.48M LDEE•HCl Solution,"[2]; 2 h, starting pH 5.01",5.01
same,pH of about 0.95M LDEE•HCl Solution,"[2]; 2 h, starting pH 5.01",5.01
same,pH of about 0.95M LDEE•HCl Solution,"[2]; 2 h, starting pH 5.3",5.34
same,pH of about 0.48M LDEE•HCl Solution,"[2]; 2 h, starting pH 5.31",5.42
same,pH of about 0.95M LDEE•HCl Solution,"[2]; 2 h, starting pH 5.6",5.68
same,pH of about 0.48M LDEE•HCl Solution,"[2]; 2 h, starting pH 5.61",5.65
same,pH of about 0.48M LDEE•HCl Solution,"[2]; 6 h, starting pH 4.19",4.34
same,pH of about 0.95M LDEE•HCl Solution,"[2]; 6 h, starting pH 4.2",4.02
same,pH of about 0.95M LDEE•HCl Solution,"[2]; 6 h, starting pH 4.4",4.28
same,pH of about 0.48M LDEE•HCl Solution,"[2]; 6 h, starting pH 4.45",4.54
same,pH of about 0.48M LDEE•HCl Solution,"[2]; 6 h, starting pH 4.59",4.6
same,pH of about 0.95M LDEE•HCl Solution,"[2]; 6 h, starting pH 4.6",4.53
same,pH of about 0.48M LDEE•HCl Solution,"[2]; 6 h, starting pH 4.78",4.71
same,pH of about 0.95M LDEE•HCl Solution,"[2]; 6 h, starting pH 4.82",4.69
same,pH of about 0.48M LDEE•HCl Solution,"[2]; 6 h, starting pH 5.01",4.9
same,pH of about 0.95M LDEE•HCl Solution,"[2]; 6 h, starting pH 5.01",4.84
same,pH of about 0.95M LDEE•HCl Solution,"[2]; 6 h, starting pH 5.3",5.21
same,pH of about 0.48M LDEE•HCl Solution,"[2]; 6 h, starting pH 5.31",5.23
same,pH of about 0.95M LDEE•HCl Solution,"[2]; 6 h, starting pH 5.6",5.53
same,pH of about 0.48M LDEE•HCl Solution,"[2]; 6 h, starting pH 5.61",5.53
same,pH of about 0.95M LDEE•HCl Solution,"[2]; 24 h, starting pH 4.2",3.86
same,pH of about 0.95M LDEE•HCl Solution,"[2]; 24 h, starting pH 4.4",4.03
same,pH of about 0.48M LDEE•HCl Solution,"[2]; 24 h, starting pH 4.45",4.19
same,pH of about 0.48M LDEE•HCl Solution,"[2]; 24 h, starting pH 4.59",4.32
same,pH of about 0.95M LDEE•HCl Solution,"[2]; 24 h, starting pH 4.6",4.22
same,pH of about 0.48M LDEE•HCl Solution,"[2]; 24 h, starting pH 4.78",4.52
same,pH of about 0.95M LDEE•HCl Solution,"[2]; 24 h, starting pH 4.82",4.36
same,pH of about 0.48M LDEE•HCl Solution,"[2]; 24 h, starting pH 5.01",4.6
same,pH of about 0.95M LDEE•HCl Solution,"[2]; 24 h, starting pH 5.01",4.58
same,pH of about 0.95M LDEE•HCl Solution,"[2]; 24 h, starting pH 5.3",4.8
same,pH of about 0.48M LDEE•HCl Solution,"[2]; 24 h, starting pH 5.31",4.91
same,pH of about 0.95M LDEE•HCl Solution,"[2]; 24 h, starting pH 5.6",5.19
same,pH of about 0.48M LDEE•HCl Solution,"[2]; 24 h, starting pH 5.61",5.23
same,pH after 24 hours,"[2]; about 2.6 M, starting pH 2.1, 23±2° C.",2.0
same,pH,"[2]; start pH about 4.49, 24 h at 40° C.",4.2
same,pH,"[2]; start pH about 4.49, 48 h at 40° C.",4.0
same,concentration of aqueous solutions allowed by solubility,[3]; aqueous solution,greater than 2.5 M
same,concentration of clear solution (high solubility),"[3]; pH 4.60 (sodium acetate), ambient about 23±2° C.",about 2.5 M
same,nodule formation,volunteer,nor did it cause the formation of a nodule
